≈ marks a conversion by molar mass, not a printed value. Calls of active or inactive are those of the source. The calls are words filed in the database; no cut-off is given here.
Key:
[1] = Hemolytic activity in human erythrocytes after 1 hr; type: ADME, cell-based, Erythrocyte; conditions: read-out: Activity
[2] = system: Mycobacterium tuberculosis; experiment: Antibacterial activity against Mycobacterium tuberculosis MTCC 300 after 7 days by resazurin microtiter assay; type: functional; conditions: for MIC: MTCC 300, 168 h

NC(=S)N/N=C1\CSC(n2nc(-c3cn(-c4ccccc4)nc3-c3ccc([N+](=O)[O-])cc3)c(O)c2-c2ccc([N+](=O)[O-])cc2)=N1
hemolysis at 1 h [1]: < 5%
MIC [2]: 62.5 µg/mL (≈ 97.6 µM)

NC(=S)N/N=C1\CSC(n2nc(-c3cn(-c4ccccc4)nc3-c3ccc(Br)cc3)c(O)c2-c2ccc(Br)cc2)=N1
hemolysis at 1 h [1]: < 5%

NC(=S)N/N=C1\CSC(n2nc(-c3cn(-c4ccccc4)nc3-c3cccc([N+](=O)[O-])c3)c(O)c2-c2ccc(Cl)cc2)=N1
hemolysis at 1 h [1]: < 5%
MIC [2]: 62.5 µg/mL (≈ 99.2 µM)

NNC(=O)c1ccncc1 [ISONIAZID]
MIC [2]: 0.48 µg/mL (≈ 3.5 µM)

NC(=S)N/N=C1\CSC(n2nc(-c3cn(-c4ccccc4)nc3-c3cccc([N+](=O)[O-])c3)c(O)c2-c2cccc([N+](=O)[O-])c2)=N1
hemolysis at 1 h [1]: < 5%
MIC [2]: 3.9 µg/mL (≈ 6.09 µM)

NC(=S)N/N=C1\CSC(n2nc(-c3cn(-c4ccccc4)nc3-c3ccc(Br)cc3)c(O)c2-c2ccc([N+](=O)[O-])cc2)=N1
hemolysis at 1 h [1]: < 5%

NC(=S)N/N=C1\CSC(n2nc(-c3cn(-c4ccccc4)nc3-c3ccc(Br)cc3)c(O)c2-c2ccc(Cl)cc2)=N1
hemolysis at 1 h [1]: < 5%

NC(=S)N/N=C1\CSC(n2nc(-c3cn(-c4ccccc4)nc3-c3ccc(Br)cc3)c(O)c2-c2ccc(F)cc2)=N1
hemolysis at 1 h [1]: < 5%

NC(=S)N/N=C1\CSC(n2nc(-c3cn(-c4ccccc4)nc3-c3cccc([N+](=O)[O-])c3)c(O)c2-c2ccc(F)cc2)=N1
hemolysis at 1 h [1]: < 5%

NC(=S)N/N=C1\CSC(n2nc(-c3cn(-c4ccccc4)nc3-c3ccc([N+](=O)[O-])cc3)c(O)c2-c2ccc(F)cc2)=N1
hemolysis at 1 h [1]: < 5%
growth inhibition (GI) [2]: Active

NC(=S)N/N=C1\CSC(n2nc(-c3cn(-c4ccccc4)nc3-c3cccc([N+](=O)[O-])c3)c(O)c2-c2ccc([N+](=O)[O-])cc2)=N1
hemolysis at 1 h [1]: < 5%
MIC [2]: 3.9 µg/mL (≈ 6.09 µM)

NC(=S)N/N=C1\CSC(n2nc(-c3cn(-c4ccccc4)nc3-c3ccc([N+](=O)[O-])cc3)c(O)c2-c2cccc([N+](=O)[O-])c2)=N1
hemolysis at 1 h [1]: < 5%
MIC [2]: 7.81 µg/mL (≈ 12.2 µM)

CO[C@H]1/C=C/O[C@@]2(C)Oc3c(C)c(O)c4c(O)c(c(/C=N/N5CCN(C)CC5)c(O)c4c3C2=O)NC(=O)/C(C)=C\C=C\[C@H](C)[C@H](O)[C@@H](C)[C@@H](O)[C@@H](C)[C@H](OC(C)=O)[C@@H]1C [RIFAMPIN]
MIC [2]: 0.24 µg/mL (≈ 0.292 µM)

NC(=S)N/N=C1\CSC(n2nc(-c3cn(-c4ccccc4)nc3-c3ccc(Cl)cc3)c(O)c2-c2ccccc2)=N1
hemolysis at 1 h [1]: < 5%
growth inhibition (GI) [2]: Active

NC(=S)N/N=C1\CSC(n2nc(-c3cn(-c4ccccc4)nc3-c3ccc([N+](=O)[O-])cc3)c(O)c2-c2ccc(Cl)cc2)=N1
hemolysis at 1 h [1]: < 5%
growth inhibition (GI) [2]: Active

NC(=S)N/N=C1\CSC(n2nc(-c3cn(-c4ccccc4)nc3-c3ccc(Cl)cc3)c(O)c2-c2ccc([N+](=O)[O-])cc2)=N1
hemolysis at 1 h [1]: < 5%
growth inhibition (GI) [2]: Active

NC(=S)N/N=C1\CSC(n2nc(-c3cn(-c4ccccc4)nc3-c3ccc(Cl)cc3)c(O)c2-c2ccc(Cl)cc2)=N1
hemolysis at 1 h [1]: < 5%
MIC [2]: 62.5 µg/mL (≈ 101 µM)

NC(=S)N/N=C1\CSC(n2nc(-c3cn(-c4ccccc4)nc3-c3ccccc3)c(O)c2-c2ccccc2)=N1
hemolysis at 1 h [1]: < 5%
growth inhibition (GI) [2]: Active

NC(=S)N/N=C1\CSC(n2nc(-c3cn(-c4ccccc4)nc3-c3ccc(Br)cc3)c(O)c2-c2cccc([N+](=O)[O-])c2)=N1
hemolysis at 1 h [1]: < 5%

NC(=S)N/N=C1\CSC(n2nc(-c3cn(-c4ccccc4)nc3-c3ccc(Cl)cc3)c(O)c2-c2ccc(F)cc2)=N1
hemolysis at 1 h [1]: < 5%
growth inhibition (GI) [2]: Active

— ChEMBL document CHEMBL3853261 (Medchemcomm, 2016)
